Assay results from ChEMBL document CHEMBL3991601, “The target landscape of clinical kinase drugs” (Science, 2017).
Activity calls are given as the source filed them. For most assays here, no stated cut-off is given here; in the data, actives have a measured Kd and inactives only a lower limit.

molecular target: Fibroblast growth factor receptor 1 (Homo sapiens, UniProt P11362)
Sequence (P11362 whole entry): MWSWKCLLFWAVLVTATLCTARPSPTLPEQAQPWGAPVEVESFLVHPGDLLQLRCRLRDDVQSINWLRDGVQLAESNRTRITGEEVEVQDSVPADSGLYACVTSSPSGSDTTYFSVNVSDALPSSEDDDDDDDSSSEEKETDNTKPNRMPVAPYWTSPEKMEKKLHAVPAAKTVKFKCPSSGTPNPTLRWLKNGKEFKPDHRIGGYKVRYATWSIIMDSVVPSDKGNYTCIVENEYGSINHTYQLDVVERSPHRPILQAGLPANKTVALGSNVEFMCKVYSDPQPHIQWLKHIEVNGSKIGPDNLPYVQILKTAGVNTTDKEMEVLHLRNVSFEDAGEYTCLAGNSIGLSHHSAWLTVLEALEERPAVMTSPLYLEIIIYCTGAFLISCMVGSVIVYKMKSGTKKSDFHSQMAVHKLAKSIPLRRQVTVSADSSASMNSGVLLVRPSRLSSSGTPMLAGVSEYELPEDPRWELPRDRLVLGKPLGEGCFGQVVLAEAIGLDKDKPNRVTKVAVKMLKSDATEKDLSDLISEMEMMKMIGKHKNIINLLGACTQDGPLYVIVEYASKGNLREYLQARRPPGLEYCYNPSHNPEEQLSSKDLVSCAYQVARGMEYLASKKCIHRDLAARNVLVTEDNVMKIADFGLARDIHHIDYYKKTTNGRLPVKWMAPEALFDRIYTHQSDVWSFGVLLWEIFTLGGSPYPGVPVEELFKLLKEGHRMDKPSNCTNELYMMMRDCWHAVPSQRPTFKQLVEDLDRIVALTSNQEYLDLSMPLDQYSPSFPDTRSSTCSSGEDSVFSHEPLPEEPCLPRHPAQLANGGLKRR

How did the Kd turn out when `CN1N=C(N)c2cn([C@@H]3O[C@H](COP(=O)(O)O)[C@@H](O)[C@H]3O)c3ncnc1c23` [TRICIRIBINE PHOSPHATE] was run?
The Kd was > 30 µM (inactive).

For `CC(C)Nc1cc(-c2c[nH]c(C(=O)N[C@H](CO)c3cccc(Cl)c3)c2)c(Cl)cn1` [ULIXERTINIB], which Kd is on record?
Its Kd is > 30 µM (inactive).

How did the Kd turn out when `CC[C@@H]1C(=O)N(C)c2cnc(Nc3ccc(C(=O)N[C@H]4CC[C@H](N5CCN(CC6CC6)CC5)CC4)cc3OC)nc2N1C(C)C` [VOLASERTIB] was run?
Its Kd is > 30 µM (inactive).

Which Kd does the source give for `CCn1c(=O)c(-c2cc[nH]n2)cc2c(C)nc(N)nc21` [VOXTALISIB] here?
The Kd was > 30 µM (inactive).

molecular target: DNA topoisomerase 2-beta (Homo sapiens, UniProt Q02880)
Sequence (Q02880 whole entry): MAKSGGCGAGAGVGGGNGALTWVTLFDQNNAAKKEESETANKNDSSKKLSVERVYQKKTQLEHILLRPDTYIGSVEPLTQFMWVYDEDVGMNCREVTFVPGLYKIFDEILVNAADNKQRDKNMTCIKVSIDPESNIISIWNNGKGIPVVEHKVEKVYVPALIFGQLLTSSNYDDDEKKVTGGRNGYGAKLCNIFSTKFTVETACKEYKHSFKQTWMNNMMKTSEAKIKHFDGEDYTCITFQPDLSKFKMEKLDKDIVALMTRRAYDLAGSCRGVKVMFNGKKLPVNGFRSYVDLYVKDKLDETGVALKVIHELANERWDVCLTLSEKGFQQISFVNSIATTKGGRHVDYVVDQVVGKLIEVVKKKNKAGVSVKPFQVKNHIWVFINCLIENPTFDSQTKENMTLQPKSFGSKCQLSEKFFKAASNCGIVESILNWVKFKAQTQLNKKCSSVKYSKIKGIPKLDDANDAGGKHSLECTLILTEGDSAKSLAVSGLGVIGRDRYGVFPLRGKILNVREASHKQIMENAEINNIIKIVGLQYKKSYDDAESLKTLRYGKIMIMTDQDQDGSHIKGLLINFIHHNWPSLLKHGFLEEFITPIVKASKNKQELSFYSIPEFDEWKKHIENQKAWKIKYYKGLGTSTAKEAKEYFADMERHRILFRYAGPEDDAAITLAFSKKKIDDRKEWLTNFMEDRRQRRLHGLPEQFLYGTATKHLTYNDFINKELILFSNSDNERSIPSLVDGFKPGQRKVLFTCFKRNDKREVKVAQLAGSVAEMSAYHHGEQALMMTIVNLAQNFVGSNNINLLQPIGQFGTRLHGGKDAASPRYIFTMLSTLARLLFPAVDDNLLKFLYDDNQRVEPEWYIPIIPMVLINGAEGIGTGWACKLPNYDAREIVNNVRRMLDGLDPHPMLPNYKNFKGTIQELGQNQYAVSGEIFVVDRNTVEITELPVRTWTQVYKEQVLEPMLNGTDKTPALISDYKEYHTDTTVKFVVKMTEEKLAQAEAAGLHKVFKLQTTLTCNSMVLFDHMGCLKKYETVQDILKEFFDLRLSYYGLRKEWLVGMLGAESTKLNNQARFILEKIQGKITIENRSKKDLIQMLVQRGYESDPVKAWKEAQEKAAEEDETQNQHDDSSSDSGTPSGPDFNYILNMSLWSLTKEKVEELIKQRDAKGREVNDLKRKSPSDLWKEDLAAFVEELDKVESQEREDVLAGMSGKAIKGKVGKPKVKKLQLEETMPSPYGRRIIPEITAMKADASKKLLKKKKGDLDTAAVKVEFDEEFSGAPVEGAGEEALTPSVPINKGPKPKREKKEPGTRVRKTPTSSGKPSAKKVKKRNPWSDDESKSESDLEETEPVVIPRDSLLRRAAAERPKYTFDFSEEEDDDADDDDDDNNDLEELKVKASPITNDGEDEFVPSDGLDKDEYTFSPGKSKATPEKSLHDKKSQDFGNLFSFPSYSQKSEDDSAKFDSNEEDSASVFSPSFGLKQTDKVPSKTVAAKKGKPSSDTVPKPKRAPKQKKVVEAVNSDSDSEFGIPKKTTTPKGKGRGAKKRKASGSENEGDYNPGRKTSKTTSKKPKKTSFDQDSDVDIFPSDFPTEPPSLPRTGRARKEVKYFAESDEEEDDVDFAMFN

Which Kd does the source give for `CN1N=C(N)c2cn([C@@H]3O[C@H](COP(=O)(O)O)[C@@H](O)[C@H]3O)c3ncnc1c23` [TRICIRIBINE PHOSPHATE] here?
Its Kd is > 30 µM (inactive).

`CC(C)Nc1cc(-c2c[nH]c(C(=O)N[C@H](CO)c3cccc(Cl)c3)c2)c(Cl)cn1` [ULIXERTINIB] was tested. Which Kd did it give?
The Kd was > 30 µM (inactive).

Which Kd does the source give for `CC[C@@H]1C(=O)N(C)c2cnc(Nc3ccc(C(=O)N[C@H]4CC[C@H](N5CCN(CC6CC6)CC5)CC4)cc3OC)nc2N1C(C)C` [VOLASERTIB] here?
Its Kd is > 30 µM (inactive).

How did the Kd turn out when `CCn1c(=O)c(-c2cc[nH]n2)cc2c(C)nc(N)nc21` [VOXTALISIB] was run?
The Kd was > 30 µM (inactive).

molecular target: T1, NUAK family SNF1-like kinase 2 (Homo sapiens, UniProt Q9H093)
T1 sequence (Q9H093 whole entry): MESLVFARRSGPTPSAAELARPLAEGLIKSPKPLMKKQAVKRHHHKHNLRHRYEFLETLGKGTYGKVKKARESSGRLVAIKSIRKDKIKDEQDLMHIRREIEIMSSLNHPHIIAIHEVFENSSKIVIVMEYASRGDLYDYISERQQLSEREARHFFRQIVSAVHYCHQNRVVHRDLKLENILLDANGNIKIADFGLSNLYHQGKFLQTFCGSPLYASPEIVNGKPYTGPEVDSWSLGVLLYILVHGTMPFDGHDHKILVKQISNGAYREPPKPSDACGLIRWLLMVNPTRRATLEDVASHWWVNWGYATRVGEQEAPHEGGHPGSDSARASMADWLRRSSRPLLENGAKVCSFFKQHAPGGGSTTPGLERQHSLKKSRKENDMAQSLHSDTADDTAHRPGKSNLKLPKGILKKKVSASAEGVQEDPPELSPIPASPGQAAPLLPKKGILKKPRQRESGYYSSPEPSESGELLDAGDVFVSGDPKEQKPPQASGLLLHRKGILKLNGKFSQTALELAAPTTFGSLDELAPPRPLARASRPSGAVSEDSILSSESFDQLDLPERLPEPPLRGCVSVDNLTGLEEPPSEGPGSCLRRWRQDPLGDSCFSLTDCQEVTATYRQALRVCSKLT

`CN1N=C(N)c2cn([C@@H]3O[C@H](COP(=O)(O)O)[C@@H](O)[C@H]3O)c3ncnc1c23` [TRICIRIBINE PHOSPHATE] was tested. Which Kd did it give?
Its Kd is > 30 µM (inactive).

With `CC(C)Nc1cc(-c2c[nH]c(C(=O)N[C@H](CO)c3cccc(Cl)c3)c2)c(Cl)cn1` [ULIXERTINIB] as the compound, how does the Kd read?
The Kd was > 30 µM (inactive).

With `CC[C@@H]1C(=O)N(C)c2cnc(Nc3ccc(C(=O)N[C@H]4CC[C@H](N5CCN(CC6CC6)CC5)CC4)cc3OC)nc2N1C(C)C` [VOLASERTIB] as the compound, how does the Kd read?
Its Kd is > 30 µM (inactive).

For `CCn1c(=O)c(-c2cc[nH]n2)cc2c(C)nc(N)nc21` [VOXTALISIB], which Kd is on record?
Its Kd is > 30 µM (inactive).

molecular target: Mitogen-activated protein kinase kinase kinase kinase 4 (Homo sapiens, UniProt O95819)
Sequence (O95819 whole entry): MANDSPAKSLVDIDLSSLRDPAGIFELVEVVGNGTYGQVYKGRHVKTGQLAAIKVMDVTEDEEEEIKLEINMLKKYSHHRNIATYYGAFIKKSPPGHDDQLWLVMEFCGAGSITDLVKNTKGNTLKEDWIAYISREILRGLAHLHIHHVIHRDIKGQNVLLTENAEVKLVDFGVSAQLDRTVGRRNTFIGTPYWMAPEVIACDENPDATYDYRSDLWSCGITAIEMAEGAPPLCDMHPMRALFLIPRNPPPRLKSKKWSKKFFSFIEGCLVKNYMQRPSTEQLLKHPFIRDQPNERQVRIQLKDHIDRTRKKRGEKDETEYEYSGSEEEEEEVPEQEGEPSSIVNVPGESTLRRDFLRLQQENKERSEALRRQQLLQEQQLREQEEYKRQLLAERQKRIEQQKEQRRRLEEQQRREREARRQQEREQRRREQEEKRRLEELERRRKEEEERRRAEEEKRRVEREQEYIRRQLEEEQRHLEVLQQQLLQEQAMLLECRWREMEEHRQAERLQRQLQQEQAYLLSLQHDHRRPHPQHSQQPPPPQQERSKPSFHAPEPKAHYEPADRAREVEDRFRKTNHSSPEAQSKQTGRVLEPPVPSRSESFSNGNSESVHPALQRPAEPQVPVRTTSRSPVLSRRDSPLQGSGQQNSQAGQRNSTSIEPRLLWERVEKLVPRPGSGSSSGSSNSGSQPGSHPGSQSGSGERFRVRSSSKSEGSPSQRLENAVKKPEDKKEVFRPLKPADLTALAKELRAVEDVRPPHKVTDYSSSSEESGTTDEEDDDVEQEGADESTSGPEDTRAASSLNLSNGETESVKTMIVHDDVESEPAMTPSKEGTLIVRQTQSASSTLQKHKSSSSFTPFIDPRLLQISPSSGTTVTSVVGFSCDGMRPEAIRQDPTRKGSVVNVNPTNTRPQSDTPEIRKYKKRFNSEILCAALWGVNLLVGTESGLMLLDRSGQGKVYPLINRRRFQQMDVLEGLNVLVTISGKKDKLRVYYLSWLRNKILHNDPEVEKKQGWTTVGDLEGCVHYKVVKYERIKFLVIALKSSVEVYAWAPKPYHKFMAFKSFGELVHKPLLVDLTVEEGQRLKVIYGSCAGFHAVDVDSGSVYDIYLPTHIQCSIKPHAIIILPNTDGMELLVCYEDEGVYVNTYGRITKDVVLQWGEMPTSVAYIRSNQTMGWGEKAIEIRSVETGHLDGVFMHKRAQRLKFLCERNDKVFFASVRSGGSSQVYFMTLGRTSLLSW

For `CN1N=C(N)c2cn([C@@H]3O[C@H](COP(=O)(O)O)[C@@H](O)[C@H]3O)c3ncnc1c23` [TRICIRIBINE PHOSPHATE], which Kd is on record?
The Kd was > 30 µM (inactive).

For `CC(C)Nc1cc(-c2c[nH]c(C(=O)N[C@H](CO)c3cccc(Cl)c3)c2)c(Cl)cn1` [ULIXERTINIB], which Kd is on record?
The Kd was > 30 µM (inactive).

For `CC[C@@H]1C(=O)N(C)c2cnc(Nc3ccc(C(=O)N[C@H]4CC[C@H](N5CCN(CC6CC6)CC5)CC4)cc3OC)nc2N1C(C)C` [VOLASERTIB], which Kd is on record?
Its Kd is > 30 µM (inactive).

For `CCn1c(=O)c(-c2cc[nH]n2)cc2c(C)nc(N)nc21` [VOXTALISIB], which Kd is on record?
The Kd was > 30 µM (inactive).

molecular target: T2, Acyl-CoA dehydrogenase family member 10 (Homo sapiens, UniProt Q6JQN1)
T2 sequence (Q6JQN1 whole entry): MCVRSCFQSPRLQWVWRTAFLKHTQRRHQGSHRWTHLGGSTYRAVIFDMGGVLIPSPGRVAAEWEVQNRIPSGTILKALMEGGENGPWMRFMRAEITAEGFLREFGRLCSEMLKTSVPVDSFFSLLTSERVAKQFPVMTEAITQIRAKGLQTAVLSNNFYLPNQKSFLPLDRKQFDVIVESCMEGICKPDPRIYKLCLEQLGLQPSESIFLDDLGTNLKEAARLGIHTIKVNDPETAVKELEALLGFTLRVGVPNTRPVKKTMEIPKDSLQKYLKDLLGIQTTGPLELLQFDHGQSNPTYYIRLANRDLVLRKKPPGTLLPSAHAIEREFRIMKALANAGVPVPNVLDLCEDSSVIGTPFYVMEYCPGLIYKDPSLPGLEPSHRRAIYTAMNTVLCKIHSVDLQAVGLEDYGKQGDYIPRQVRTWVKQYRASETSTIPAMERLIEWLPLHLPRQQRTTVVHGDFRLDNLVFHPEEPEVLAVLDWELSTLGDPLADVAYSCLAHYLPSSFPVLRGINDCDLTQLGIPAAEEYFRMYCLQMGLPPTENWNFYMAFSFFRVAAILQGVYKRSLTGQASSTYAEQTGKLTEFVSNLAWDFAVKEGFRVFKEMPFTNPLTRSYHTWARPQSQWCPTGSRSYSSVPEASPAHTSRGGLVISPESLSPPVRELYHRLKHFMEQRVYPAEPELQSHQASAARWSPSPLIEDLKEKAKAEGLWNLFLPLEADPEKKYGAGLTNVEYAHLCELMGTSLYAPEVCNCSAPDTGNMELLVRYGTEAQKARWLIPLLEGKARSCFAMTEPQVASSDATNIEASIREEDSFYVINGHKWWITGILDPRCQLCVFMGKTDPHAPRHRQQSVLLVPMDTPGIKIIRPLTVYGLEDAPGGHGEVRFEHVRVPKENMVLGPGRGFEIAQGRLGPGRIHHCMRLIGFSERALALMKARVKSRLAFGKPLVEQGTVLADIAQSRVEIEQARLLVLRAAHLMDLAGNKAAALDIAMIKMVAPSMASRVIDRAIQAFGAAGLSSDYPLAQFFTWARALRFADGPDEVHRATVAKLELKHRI

For `CN1N=C(N)c2cn([C@@H]3O[C@H](COP(=O)(O)O)[C@@H](O)[C@H]3O)c3ncnc1c23` [TRICIRIBINE PHOSPHATE], which Kd is on record?
The Kd was > 30 µM (inactive).

How did the Kd turn out when `CC(C)Nc1cc(-c2c[nH]c(C(=O)N[C@H](CO)c3cccc(Cl)c3)c2)c(Cl)cn1` [ULIXERTINIB] was run?
Its Kd is > 30 µM (inactive).

How did the Kd turn out when `CC[C@@H]1C(=O)N(C)c2cnc(Nc3ccc(C(=O)N[C@H]4CC[C@H](N5CCN(CC6CC6)CC5)CC4)cc3OC)nc2N1C(C)C` [VOLASERTIB] was run?
Its Kd is > 30 µM (inactive).

With `CCn1c(=O)c(-c2cc[nH]n2)cc2c(C)nc(N)nc21` [VOXTALISIB] as the compound, how does the Kd read?
Its Kd is > 30 µM (inactive).

molecular target: Serine/threonine-protein kinase B-raf (Homo sapiens, UniProt P15056)
Sequence (P15056 whole entry): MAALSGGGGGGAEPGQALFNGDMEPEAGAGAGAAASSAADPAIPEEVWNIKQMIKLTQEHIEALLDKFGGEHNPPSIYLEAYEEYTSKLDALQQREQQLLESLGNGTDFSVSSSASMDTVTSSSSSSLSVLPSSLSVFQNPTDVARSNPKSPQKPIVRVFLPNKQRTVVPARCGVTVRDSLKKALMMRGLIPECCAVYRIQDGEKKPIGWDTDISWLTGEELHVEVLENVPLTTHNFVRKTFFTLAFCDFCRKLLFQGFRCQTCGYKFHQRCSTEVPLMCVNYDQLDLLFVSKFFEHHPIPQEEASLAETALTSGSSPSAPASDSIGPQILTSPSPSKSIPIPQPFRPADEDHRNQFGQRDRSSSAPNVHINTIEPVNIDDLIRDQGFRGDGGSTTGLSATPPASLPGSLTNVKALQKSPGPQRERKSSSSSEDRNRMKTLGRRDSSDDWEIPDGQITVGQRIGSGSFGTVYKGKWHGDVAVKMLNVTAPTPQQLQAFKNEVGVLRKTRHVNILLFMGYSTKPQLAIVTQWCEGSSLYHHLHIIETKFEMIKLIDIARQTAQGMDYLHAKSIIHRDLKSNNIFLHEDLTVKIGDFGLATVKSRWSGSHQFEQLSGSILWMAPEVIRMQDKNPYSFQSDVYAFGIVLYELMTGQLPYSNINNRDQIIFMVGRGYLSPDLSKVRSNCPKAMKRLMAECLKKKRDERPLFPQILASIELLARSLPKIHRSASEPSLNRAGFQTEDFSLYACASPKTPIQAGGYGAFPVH

With `CN1N=C(N)c2cn([C@@H]3O[C@H](COP(=O)(O)O)[C@@H](O)[C@H]3O)c3ncnc1c23` [TRICIRIBINE PHOSPHATE] as the compound, how does the Kd read?
The Kd was > 30 µM (inactive).

How did the Kd turn out when `CC(C)Nc1cc(-c2c[nH]c(C(=O)N[C@H](CO)c3cccc(Cl)c3)c2)c(Cl)cn1` [ULIXERTINIB] was run?
The Kd was > 30 µM (inactive).

Which Kd does the source give for `CC[C@@H]1C(=O)N(C)c2cnc(Nc3ccc(C(=O)N[C@H]4CC[C@H](N5CCN(CC6CC6)CC5)CC4)cc3OC)nc2N1C(C)C` [VOLASERTIB] here?
The Kd was > 30 µM (inactive).

How did the Kd turn out when `CCn1c(=O)c(-c2cc[nH]n2)cc2c(C)nc(N)nc21` [VOXTALISIB] was run?
Its Kd is > 30 µM (inactive).

molecular target: LIM domain kinase 1 (Homo sapiens, UniProt P53667)
Sequence (P53667 whole entry, the tested form may be a part): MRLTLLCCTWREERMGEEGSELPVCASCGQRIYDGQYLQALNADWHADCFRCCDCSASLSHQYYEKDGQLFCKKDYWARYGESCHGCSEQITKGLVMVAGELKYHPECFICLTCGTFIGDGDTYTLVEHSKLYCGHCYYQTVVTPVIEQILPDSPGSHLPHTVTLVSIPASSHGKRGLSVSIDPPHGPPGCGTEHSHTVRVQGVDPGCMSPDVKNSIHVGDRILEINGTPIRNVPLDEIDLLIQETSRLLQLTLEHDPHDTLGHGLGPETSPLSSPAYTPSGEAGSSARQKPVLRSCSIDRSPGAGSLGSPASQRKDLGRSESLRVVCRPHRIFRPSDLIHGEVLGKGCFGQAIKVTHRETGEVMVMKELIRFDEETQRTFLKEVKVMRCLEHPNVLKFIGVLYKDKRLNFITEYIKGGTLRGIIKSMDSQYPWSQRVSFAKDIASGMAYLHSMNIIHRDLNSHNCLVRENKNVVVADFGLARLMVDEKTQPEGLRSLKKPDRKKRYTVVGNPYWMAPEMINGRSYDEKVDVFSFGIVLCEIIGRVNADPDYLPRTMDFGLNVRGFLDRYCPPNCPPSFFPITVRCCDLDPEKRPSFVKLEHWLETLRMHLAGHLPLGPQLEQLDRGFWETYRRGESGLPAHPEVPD

How did the Kd turn out when `CN1N=C(N)c2cn([C@@H]3O[C@H](COP(=O)(O)O)[C@@H](O)[C@H]3O)c3ncnc1c23` [TRICIRIBINE PHOSPHATE] was run?
The Kd was > 30 µM (inactive).

With `CC(C)Nc1cc(-c2c[nH]c(C(=O)N[C@H](CO)c3cccc(Cl)c3)c2)c(Cl)cn1` [ULIXERTINIB] as the compound, how does the Kd read?
Its Kd is > 30 µM (inactive).

With `CC[C@@H]1C(=O)N(C)c2cnc(Nc3ccc(C(=O)N[C@H]4CC[C@H](N5CCN(CC6CC6)CC5)CC4)cc3OC)nc2N1C(C)C` [VOLASERTIB] as the compound, how does the Kd read?
Its Kd is > 30 µM (inactive).

Which Kd does the source give for `CCn1c(=O)c(-c2cc[nH]n2)cc2c(C)nc(N)nc21` [VOXTALISIB] here?
The Kd was > 30 µM (inactive).

molecular target: T3, Serine/threonine-protein kinase 4 (Homo sapiens, UniProt Q13043)
T3 sequence (Q13043 whole entry): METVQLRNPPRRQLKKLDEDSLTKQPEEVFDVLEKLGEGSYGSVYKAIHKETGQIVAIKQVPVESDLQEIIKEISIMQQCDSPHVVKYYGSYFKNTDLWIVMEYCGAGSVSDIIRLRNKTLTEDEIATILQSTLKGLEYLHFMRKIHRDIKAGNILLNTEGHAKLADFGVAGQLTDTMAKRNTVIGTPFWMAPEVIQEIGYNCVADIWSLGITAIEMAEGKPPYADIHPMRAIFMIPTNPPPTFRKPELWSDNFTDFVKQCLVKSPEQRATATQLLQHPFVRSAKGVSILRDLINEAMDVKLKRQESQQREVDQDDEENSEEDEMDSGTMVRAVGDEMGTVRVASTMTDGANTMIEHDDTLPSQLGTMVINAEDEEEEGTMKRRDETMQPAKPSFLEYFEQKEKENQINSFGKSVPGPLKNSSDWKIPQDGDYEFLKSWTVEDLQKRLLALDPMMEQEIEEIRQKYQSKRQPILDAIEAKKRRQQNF

How did the Kd turn out when `CN1N=C(N)c2cn([C@@H]3O[C@H](COP(=O)(O)O)[C@@H](O)[C@H]3O)c3ncnc1c23` [TRICIRIBINE PHOSPHATE] was run?
The Kd was > 30 µM (inactive).

`CC(C)Nc1cc(-c2c[nH]c(C(=O)N[C@H](CO)c3cccc(Cl)c3)c2)c(Cl)cn1` [ULIXERTINIB] was tested. Which Kd did it give?
Its Kd is > 30 µM (inactive).

Which Kd does the source give for `CC[C@@H]1C(=O)N(C)c2cnc(Nc3ccc(C(=O)N[C@H]4CC[C@H](N5CCN(CC6CC6)CC5)CC4)cc3OC)nc2N1C(C)C` [VOLASERTIB] here?
The Kd was > 30 µM (inactive).

`CCn1c(=O)c(-c2cc[nH]n2)cc2c(C)nc(N)nc21` [VOXTALISIB] was tested. Which Kd did it give?
Its Kd is > 30 µM (inactive).
